The values below are quoted from earlier work in patent publication US7186826B2, “Phosphorus-containing compounds and uses thereof” (ARIAD Gene Therapeutics, Inc., priority 2002, dated 2007).

For this data set the following is noted: see WO 03/022807 and 99/15530.

With `CO[C@H]1C[C@@H]2CC[C@@H](C)[C@@](O)(O2)C(=O)C(=O)N2CCCC[C@H]2C(=O)O[C@H]([C@H](C)C[C@@H]2CC[C@H](n3cnnn3)[C@H](OC)C2)CC(=O)[C@H](C)/C=C(\C)[C@@H](O)[C@@H](OC)C(=O)[C@H](C)C[C@H](C)/C=C/C=C/C=C/1C` [ABT-578], the biological half-life entry is “shortened”.
